Experimental data as given in ChEMBL document CHEMBL5108048, “Potent GCN2 Inhibitor Capable of Reversing MDSC-Driven T Cell Suppression Demonstrates In Vivo Efficacy as a Single Agent and in Combination with Anti-Angiogenesis Therapy” (J Med Chem, 2022).
Active and inactive are the calls of the source. The rule behind the calls is not given here.

Assays:
[1] = target: T1, eIF-2-alpha kinase GCN2 (Homo sapiens, UniProt Q9P2K8); test: Inhibition of GCN2 (unknown origin)
[2] = target: T1, eIF-2-alpha kinase GCN2; test: Inhibition of GCN2 in human SK-OV-3 cells assessed as reduction in phosphorylation of eIF2alpha by cellular assay; assay type: cell-based
[3] = […] in Sprague-Dawley rat […] assessed as half life at 0.5 mg/kg,iv; assay type: ADME, organism-based
[4] = AUC (0-infinity) in Sprague-Dawley rat at 2 mg/kg,po; assay type: ADME, organism-based; parameters: time infinity, dose 2 mg/kg, route po; settings: in vivo
[5] = Oral bioavailability in Sprague-Dawley rat at 2 mg/kg; assay type: ADME, organism-based; settings: in vivo
[6] = target: T2, Eukaryotic translation initiation factor 2-alpha kinase 1 (Homo sapiens, UniProt Q9BQI3); test: Inhibition of HRI (unknown origin)
[7] = target: T3, Interferon-induced, double-stranded RNA-activated protein kinase (Homo sapiens, UniProt P19525); test: Inhibition of PKR (unknown origin)
[8] = target: T4, Eukaryotic translation initiation factor 2-alpha kinase 3 (Homo sapiens, UniProt Q9NZJ5); test: Inhibition of PERK (unknown origin)
T4 sequence (Q9NZJ5 whole entry): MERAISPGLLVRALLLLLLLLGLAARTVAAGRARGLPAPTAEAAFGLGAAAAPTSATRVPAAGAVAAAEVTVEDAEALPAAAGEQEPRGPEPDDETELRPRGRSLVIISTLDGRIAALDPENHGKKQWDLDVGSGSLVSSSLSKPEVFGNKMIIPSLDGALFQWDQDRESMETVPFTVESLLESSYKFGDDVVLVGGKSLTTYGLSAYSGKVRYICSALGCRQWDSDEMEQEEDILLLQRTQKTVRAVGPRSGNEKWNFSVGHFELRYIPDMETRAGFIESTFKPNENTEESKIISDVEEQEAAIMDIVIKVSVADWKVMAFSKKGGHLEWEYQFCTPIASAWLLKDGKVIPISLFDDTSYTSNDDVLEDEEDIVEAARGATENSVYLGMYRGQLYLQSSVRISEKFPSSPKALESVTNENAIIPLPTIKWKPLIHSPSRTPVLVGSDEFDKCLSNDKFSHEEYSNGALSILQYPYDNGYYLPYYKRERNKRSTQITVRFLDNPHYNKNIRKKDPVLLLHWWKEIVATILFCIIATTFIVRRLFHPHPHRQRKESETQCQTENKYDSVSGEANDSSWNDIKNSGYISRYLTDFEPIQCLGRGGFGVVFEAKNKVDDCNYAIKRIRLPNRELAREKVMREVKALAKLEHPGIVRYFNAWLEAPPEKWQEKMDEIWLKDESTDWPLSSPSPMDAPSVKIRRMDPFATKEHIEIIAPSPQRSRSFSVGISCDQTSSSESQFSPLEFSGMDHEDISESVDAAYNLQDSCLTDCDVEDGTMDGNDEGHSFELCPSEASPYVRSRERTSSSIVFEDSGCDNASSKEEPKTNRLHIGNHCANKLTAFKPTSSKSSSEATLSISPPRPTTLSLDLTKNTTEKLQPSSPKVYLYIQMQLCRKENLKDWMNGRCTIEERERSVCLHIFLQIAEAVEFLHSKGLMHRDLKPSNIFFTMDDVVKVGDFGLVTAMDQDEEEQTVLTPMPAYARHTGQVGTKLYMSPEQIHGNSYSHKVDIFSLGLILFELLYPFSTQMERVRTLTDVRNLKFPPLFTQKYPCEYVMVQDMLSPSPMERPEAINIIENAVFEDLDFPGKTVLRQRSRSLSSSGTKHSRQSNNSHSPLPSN

[9] = target: CDK6/cyclin D3 (Homo sapiens, UniProt Q00534); test: Inhibition of CDK6/Cyclin-D3 (unknown origin); assay type: protein-complex assay
[10] = target: T5, Cyclin-dependent kinase-like 2 (Homo sapiens, UniProt Q92772); test: Inhibition of CDKL2 (unknown origin)
T5 sequence (Q92772 whole entry): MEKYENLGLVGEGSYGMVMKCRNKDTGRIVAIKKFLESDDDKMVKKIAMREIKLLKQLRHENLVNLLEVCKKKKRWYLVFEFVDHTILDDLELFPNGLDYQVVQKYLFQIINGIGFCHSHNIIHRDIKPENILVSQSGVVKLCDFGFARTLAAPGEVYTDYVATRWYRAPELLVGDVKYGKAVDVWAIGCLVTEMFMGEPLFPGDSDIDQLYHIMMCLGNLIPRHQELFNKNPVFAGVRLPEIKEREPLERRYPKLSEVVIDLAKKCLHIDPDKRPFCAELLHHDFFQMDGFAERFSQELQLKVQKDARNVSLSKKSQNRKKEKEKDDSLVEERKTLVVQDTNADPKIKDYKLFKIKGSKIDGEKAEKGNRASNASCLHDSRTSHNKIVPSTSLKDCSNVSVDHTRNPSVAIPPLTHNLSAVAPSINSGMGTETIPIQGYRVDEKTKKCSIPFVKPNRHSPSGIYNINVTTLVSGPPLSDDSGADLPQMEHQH

[11] = target: T6, Cyclin-dependent kinase-like 3 (Homo sapiens, UniProt Q8IVW4); test: Inhibition of CDKL3 (unknown origin)
[12] = target: T7, Cyclin-dependent kinase-like 4 (Homo sapiens, UniProt Q5MAI5); test: Inhibition of CDKL4 (unknown origin)
[13] = target: T8, Mitogen-activated protein kinase 10 (Homo sapiens, UniProt P53779); test: Inhibition of JNK3 (unknown origin)
[14] = target: T9, Transcription initiation factor TFIID subunit 1-like (Homo sapiens, UniProt Q8IZX4); test: Inhibition of TAF1L (unknown origin)
[15] = target: T2, Eukaryotic translation initiation factor 2-alpha kinase 1; test: Inhibition of HRI (unknown origin) assessed as fold change
[16] = target: T3, Interferon-induced, double-stranded RNA-activated protein kinase; test: Inhibition of PKR (unknown origin) assessed as fold change
[17] = target: T10, Eukaryotic translation initiation factor 2-alpha kinase 3 (Homo sapiens) (UniProt Q9NZJ5); test: Inhibition of PERK (unknown origin) assessed as fold change
T10 sequence (whole entry): T4 sequence (Q9NZJ5 whole entry)

[18] = target: CDK6/cyclin D3 (Homo sapiens) (UniProt P30281+Q00534); test: Inhibition of CDK6/Cyclin-D3 (unknown origin) assessed as fold change; assay type: protein-complex assay
[19] = target: T11, Cyclin-dependent kinase-like 2 (Homo sapiens) (UniProt Q92772); test: Inhibition of CDKL2 (unknown origin) assessed as fold change
T11 sequence (whole entry): T5 sequence (Q92772 whole entry)

[20] = target: T6, Cyclin-dependent kinase-like 3; test: Inhibition of CDKL3 (unknown origin) assessed as fold change
[21] = target: T7, Cyclin-dependent kinase-like 4; test: Inhibition of CDKL4 (unknown origin) assessed as fold change
[22] = target: T8, Mitogen-activated protein kinase 10; test: Inhibition of JNK3 (unknown origin) assessed as fold change
[23] = target: T9, Transcription initiation factor TFIID subunit 1-like; test: Inhibition of TAF1L (unknown origin) assessed as fold change
[24] = target: T1, eIF-2-alpha kinase GCN2; test: Inhibition of GCN2 in human SK-OV-3 cells assessed as reduction in phosphorylation of eIF2alpha in presence of human serum by cellular assay; assay type: cell-based
[25] = Plasma protein binding (unknown origin) assessed as unbound fraction; assay type: ADME, cell-free
[26] = Clearance in Balb/c mouse at 0.5 mg/kg,iv; assay type: ADME, organism-based; settings: in vivo
[27] = Volume of distribution at steady state in Balb/c mouse at 0.5 mg/kg,iv; assay type: ADME, organism-based; settings: in vivo, read-out: Vdss
[28] = AUC (0-infinity) in Balb/c mouse at 2 mg/kg,po; assay type: ADME, organism-based; parameters: time infinity, dose 2 mg/kg, route po; settings: in vivo
[29] = Oral bioavailability in Balb/c mouse at 2 mg/kg; assay type: ADME, organism-based; settings: in vivo
[30] = tested on: Mus musculus; test: In vivo inhibition of GCN2 in Balb/c mouse injected with […] Renca cells assessed as reduction in tumor GCN2 expression level at 15 mg/kg,po bid after 17 days; assay type: functional; settings: Neoplasm, 408 h, time 17 day
[31] = tested on: Spleen; test: In vivo inhibition of GCN2 in Balb/c mouse injected with […] Renca cells assessed as reduction in spleen GCN2 expression level at 15 mg/kg,po bid after 17 days; assay type: functional; settings: 408 h, time 17 day
[32] = tested on: Mus musculus; test: In vivo inhibition of GCN2 in Balb/c mouse injected with […] Renca cells assessed as reduction in ATF4 expression level at 15 mg/kg,po bid after 17 days by western blot analysis; assay type: functional; settings: 408 h, time 17 day
[33] = tested on: Panc02; test: Antitumor activity against […] Panc02 cells xenografted in mouse assessed as decrease in MDSC- induced suppression of CD8+ T cells at 600 nM incubated for 3 days; assay type: functional, cell-based; settings: time 3.0 day
[34] = Antitumor activity against mouse LL2 cells xenografted in mouse assessed as tumor growth inhibition at 50 mg/kg,po bid measured after 26 days; assay type: functional; settings: Lewis lung carcinoma, 624 h, time 26 day, read-out: TGI
[35] = Half life in Balb/c mouse at 0.5 mg/kg,iv; assay type: ADME, organism-based; settings: in vivo
[36] = Antitumor activity against mouse LL2 cells xenografted in mouse assessed as tumor growth inhibition at 50 mg/kg,po bid in presence of anti-VEGFR antibody measured after 26 days; assay type: functional; settings: Lewis lung carcinoma, 624 h, time 26 day, read-out: TGI

T1 sequence (Q9P2K8 whole entry): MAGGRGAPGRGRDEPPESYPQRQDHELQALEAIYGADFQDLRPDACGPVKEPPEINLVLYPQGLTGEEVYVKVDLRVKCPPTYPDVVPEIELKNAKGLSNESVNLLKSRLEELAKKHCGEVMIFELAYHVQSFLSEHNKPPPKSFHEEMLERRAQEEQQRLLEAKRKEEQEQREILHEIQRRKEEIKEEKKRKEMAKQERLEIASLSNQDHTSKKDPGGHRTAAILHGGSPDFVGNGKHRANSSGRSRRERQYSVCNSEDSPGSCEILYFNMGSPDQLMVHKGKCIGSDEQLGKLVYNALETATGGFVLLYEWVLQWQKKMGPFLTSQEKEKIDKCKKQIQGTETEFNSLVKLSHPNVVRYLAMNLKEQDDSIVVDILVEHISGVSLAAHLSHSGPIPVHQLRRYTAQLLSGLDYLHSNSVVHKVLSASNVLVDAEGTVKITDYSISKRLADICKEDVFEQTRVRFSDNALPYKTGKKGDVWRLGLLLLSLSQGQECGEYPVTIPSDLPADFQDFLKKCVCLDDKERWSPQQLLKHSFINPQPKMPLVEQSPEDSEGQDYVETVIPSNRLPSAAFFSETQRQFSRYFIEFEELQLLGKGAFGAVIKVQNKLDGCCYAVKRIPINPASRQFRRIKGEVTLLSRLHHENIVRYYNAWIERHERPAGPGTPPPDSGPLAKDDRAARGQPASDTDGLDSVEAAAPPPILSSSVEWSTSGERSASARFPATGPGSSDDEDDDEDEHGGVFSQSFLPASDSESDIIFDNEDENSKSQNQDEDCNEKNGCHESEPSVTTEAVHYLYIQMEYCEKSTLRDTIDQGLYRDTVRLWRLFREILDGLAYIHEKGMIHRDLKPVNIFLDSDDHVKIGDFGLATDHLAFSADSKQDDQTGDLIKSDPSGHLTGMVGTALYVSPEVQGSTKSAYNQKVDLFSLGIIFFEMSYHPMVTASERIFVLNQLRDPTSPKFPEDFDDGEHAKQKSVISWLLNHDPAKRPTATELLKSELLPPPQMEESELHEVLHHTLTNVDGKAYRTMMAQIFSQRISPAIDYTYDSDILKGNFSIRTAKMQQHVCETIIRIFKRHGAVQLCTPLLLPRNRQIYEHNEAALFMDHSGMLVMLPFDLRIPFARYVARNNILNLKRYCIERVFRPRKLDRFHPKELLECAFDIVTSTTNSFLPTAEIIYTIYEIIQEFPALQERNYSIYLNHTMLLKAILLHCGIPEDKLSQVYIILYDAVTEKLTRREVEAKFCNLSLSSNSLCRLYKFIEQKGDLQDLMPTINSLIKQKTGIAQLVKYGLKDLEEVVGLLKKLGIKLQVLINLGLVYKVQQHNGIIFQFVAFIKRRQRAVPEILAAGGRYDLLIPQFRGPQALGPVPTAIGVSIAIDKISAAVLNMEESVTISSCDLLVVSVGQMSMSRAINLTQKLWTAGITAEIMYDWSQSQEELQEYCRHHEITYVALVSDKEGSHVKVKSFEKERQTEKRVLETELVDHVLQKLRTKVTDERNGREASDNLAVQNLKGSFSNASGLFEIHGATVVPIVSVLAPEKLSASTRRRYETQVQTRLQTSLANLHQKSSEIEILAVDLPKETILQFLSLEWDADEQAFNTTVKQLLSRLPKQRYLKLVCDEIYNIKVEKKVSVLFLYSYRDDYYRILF
T9 sequence (Q8IZX4 whole entry): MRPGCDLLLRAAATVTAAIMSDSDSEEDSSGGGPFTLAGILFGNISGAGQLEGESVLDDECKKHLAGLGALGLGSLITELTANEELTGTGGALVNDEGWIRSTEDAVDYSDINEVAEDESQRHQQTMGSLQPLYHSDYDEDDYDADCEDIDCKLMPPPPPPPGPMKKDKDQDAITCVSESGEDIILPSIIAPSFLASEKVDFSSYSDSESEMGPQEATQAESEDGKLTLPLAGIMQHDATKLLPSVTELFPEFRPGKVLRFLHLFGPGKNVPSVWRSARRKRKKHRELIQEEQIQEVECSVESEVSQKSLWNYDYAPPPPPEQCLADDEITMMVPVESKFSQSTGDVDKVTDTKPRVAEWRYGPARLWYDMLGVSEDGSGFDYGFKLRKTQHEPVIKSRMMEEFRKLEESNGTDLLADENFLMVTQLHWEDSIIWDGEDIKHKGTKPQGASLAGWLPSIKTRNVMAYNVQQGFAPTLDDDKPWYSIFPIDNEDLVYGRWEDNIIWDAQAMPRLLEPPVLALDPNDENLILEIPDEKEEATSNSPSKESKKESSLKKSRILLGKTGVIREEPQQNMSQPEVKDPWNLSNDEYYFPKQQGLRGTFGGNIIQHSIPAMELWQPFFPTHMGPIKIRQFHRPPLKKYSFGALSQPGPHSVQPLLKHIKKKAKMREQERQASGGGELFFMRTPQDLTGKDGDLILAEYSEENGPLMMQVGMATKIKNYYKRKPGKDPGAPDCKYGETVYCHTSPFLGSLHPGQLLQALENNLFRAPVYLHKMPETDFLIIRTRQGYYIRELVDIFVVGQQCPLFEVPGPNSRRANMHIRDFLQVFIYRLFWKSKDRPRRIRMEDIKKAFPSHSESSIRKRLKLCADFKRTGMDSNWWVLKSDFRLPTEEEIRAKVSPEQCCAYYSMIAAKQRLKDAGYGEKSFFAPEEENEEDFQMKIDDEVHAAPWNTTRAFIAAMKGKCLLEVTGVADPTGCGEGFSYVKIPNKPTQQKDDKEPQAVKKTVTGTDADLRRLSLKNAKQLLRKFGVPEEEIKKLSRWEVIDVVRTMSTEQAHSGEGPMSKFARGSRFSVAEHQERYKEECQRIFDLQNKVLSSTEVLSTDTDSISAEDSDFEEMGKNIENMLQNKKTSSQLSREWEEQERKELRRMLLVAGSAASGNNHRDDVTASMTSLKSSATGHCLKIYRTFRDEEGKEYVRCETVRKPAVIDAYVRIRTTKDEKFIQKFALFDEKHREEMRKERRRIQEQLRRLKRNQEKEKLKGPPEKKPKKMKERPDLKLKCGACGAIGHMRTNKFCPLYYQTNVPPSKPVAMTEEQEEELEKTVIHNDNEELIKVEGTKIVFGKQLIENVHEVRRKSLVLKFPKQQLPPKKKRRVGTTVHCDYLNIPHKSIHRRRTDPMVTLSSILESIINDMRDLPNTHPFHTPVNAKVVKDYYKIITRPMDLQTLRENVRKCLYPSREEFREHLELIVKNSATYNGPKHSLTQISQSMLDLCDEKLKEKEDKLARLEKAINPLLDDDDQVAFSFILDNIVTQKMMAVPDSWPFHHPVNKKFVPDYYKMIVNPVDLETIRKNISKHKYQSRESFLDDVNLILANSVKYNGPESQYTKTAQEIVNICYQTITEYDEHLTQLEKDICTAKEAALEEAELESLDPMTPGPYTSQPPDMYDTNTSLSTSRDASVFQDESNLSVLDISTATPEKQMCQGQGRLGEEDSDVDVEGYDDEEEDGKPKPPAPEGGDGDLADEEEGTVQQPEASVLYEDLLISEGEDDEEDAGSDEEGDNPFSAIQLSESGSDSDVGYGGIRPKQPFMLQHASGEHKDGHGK
T3 sequence (P19525 whole entry): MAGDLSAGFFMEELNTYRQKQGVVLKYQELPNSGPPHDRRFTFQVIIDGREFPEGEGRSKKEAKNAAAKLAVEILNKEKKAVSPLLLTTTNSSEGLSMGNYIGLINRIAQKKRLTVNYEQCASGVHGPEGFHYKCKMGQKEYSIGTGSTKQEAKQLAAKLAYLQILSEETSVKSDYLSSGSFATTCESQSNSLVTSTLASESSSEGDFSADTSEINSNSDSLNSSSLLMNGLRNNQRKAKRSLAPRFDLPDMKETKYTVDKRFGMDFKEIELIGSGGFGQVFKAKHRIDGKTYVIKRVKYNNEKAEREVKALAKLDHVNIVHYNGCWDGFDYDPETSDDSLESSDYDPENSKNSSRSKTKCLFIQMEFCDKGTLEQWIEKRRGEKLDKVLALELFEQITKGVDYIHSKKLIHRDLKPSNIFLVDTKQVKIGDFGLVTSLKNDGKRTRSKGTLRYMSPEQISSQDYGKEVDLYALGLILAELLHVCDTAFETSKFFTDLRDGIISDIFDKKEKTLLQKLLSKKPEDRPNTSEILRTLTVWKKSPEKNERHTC
T8 sequence (P53779 whole entry): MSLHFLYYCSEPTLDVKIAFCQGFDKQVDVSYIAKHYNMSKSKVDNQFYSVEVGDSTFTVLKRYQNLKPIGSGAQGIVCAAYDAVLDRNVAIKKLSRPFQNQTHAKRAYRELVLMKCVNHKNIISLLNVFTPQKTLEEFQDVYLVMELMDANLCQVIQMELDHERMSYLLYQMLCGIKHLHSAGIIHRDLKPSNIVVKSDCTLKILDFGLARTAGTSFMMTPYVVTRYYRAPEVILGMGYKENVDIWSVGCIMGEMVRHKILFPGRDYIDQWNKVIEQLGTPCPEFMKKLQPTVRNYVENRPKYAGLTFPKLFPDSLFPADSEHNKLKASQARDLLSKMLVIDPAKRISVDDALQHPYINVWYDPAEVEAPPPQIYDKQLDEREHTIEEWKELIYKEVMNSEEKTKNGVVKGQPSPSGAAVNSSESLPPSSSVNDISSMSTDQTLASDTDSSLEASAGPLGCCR
T7 sequence (Q5MAI5 whole entry): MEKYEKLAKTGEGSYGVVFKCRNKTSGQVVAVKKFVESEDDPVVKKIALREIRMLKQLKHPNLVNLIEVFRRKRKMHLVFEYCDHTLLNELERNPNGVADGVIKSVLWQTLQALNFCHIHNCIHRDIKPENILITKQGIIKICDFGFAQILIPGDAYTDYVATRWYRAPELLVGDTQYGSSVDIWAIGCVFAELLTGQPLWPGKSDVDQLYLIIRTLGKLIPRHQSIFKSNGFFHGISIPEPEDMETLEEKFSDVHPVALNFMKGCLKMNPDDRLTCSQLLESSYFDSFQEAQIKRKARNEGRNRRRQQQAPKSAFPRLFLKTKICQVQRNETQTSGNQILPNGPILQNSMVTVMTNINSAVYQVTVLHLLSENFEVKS

IC50 [1]: 5 nM
IC50 [2]: 16 nM
half-life [3]: 0.867 h
AUC(0-inf) [4]: 4600 ng·h/mL
bioavailability [5]: 80%
IC50 [6]: > 1000 nM
IC50 [7]: > 50000 nM
IC50 [8]: > 50000 nM
IC50 [9]: 191 nM
IC50 [10]: 165 nM
IC50 [11]: 143 nM
IC50 [12]: 118 nM
IC50 [13]: 101 nM
IC50 [14]: 124 nM
fold change (FC) [15]: > 200
fold change (FC) [16]: > 10000
fold change (FC) [17]: > 10000
fold change (FC) [18]: 38
fold change (FC) [19]: 33
fold change (FC) [20]: 28
fold change (FC) [21]: 23
fold change (FC) [22]: 20
fold change (FC) [23]: 25
IC50 [24]: 1310 nM
Fu [25]: 1%
clearance [26]: 10 mL/min/kg
Vd [27]: 0.8 L/kg
AUC(0-inf) [28]: 1680 ng·h/mL
bioavailability [29]: 50%
half-life [35]: 1.2 h
SMILES: CNC(=O)[C@]1(C)CC[C@@H](Nc2ncc3c(Br)nn(-c4ccc(-c5nnc(C)s5)cc4)c3n2)C1
inhibition in vivo at 15 mg/kg [30]: 84%
inhibition in vivo at 15 mg/kg [31]: 80%
inhibition in vivo at 15 mg/kg [32]: 65%
Activity [33]: Active
inhibition in vivo at 50 mg/kg [34]: 56%
inhibition in vivo at 50 mg/kg [36]: 79%
